Article PMC8398847, “Isavuconazole: Thermodynamic Evaluation of Processes Sublimation, Dissolution and Partition in Pharmaceutically Relevant Media” (Molecules, 2021)
Where two headings read alike, the source gives them in different places.

Experiments:
[1] = Dissolution thermodynamics: ideal solubility, activity coefficients at infinite dilution, excess functions; type: physicochemical
Description: The temperature dependence of solute solubility is described by the thermodynamic relationship:(26) lnx=lnxid−lnγ=ΔmH/RT[T−Tm/T]+∫TmT∫TmT(CpL−CpS)dT/RT^2−lnγ where x, xid, γ, Tm, ΔmH, ΔCp=CpL−CpS , R, and T represent the solubility mole fraction of the solute in solution, ideal mole fraction solubility of the solute, activity coefficient of the solute in solution, melting temperature of the solute, enthalpy of melting of the pure solute, differential molar heat capacity of the pure solute, gas constant and temperature, respectively. If the solubility or equilibrium mole fraction of a compound in solvents studied is low, it is assumed that the last term in Equation (26) denotes the infinite dilution activity coefficient lnγ^∞, which can be expressed as:(27) lnγ∞=ΔHsolE/RT−ΔSsolE/R where ΔHsolE and ΔSsolE represent the partial molar excess enthalpy, and partial molar excess entropy, respectively, and are assumed to be temperature independent. As the quantity ΔCp is assumed to be negligible and considered to be zero [52], substituting ΔCp = 0 into Equation (26) simplifies to (28) lnxid=−ΔHm/RTmln[Tm/T]

[2] = Partition experiment, 1-octanol/buffer pH 7.4, shake flask; type: physicochemical; settings: for logP at 24 h: 1-octanol/buffer pH 7.4, pH 7.4, 1-octanol/buffer pH 7.4, read-out: logP*O/B (mole fraction scale); for PO/B / logPO/B / sB · 10^6 (equilibrium molar concentration, buffer phase) / sO · 10^3 (equilibrium molar concentration, organic phase) / xB · 10^7 (mole fraction, buffer phase) / xo · 10^4 (mole fraction, 1-octanol phase): 1-octanol/buffer pH 7.4
Description: The partition coefficients in the 1-octanol/buffer pH 7.4 system were determined by the shake flask method in the temperature range 293.15–313.15 K. The total volume of the two-phase system 80 cm^3 with the ratio of the organic phase to the volume of the aqueous phase 1:1 was used. Before the experiment, both solvents were mutually saturated by stirring in a large vessel for two days. […] The flasks with the test compound were stirred for 24 h in an air thermostat until complete equilibrium was ensured, as evidenced by the absence of turbidity in each of the phases. The final drug concentrations in both immiscible phases were measured spectrophotometrically.
The partition coefficients in 1-octanol/buffer system (PO/B) were calculated as the ratio of the equilibrium molar concentrations in the organic (sO) and buffer (sB )phases:PO/B =sO/sB(9)
The value P*O/B expressed in mole fraction were determined by follow equation:P*O/B = xO/xB(10)
The standard transfer enthalpy of drug was calculated based on the experimental temperature dependence of partition coefficients using van’t Hoff method:(11) d(lnPO/B*)/dT=ΔtrH^0/RT^2 whereas the standard Gibbs energy of transfer process from the buffer to 1-octanol was evaluated:∆trG° = −RTlnP*O/B(12)
The standard transfer entropy (∆trS°) is obtained by means of relationship:∆trS° =(∆trH° − ∆trG°)/T(13)
The transfer thermodynamic functions represent the change in the enthalpy and entropy terms when one solute mole is transferred from the aqueous phase to the organic phase at infinite dilution.

[3] = transfer from buffer pH 7.4 to 1-octanol

C[C@@H](c1nc(-c2ccc(C#N)cc2)cs1)[C@](O)(Cn1cncn1)c1cc(F)ccc1F [IVZ, Isavuconazole]
lnγ^∞ ([1]; 1-octanol, 293.15 K): 2.40 | G^E ([1]; 1-octanol, 298.15 K): 1.4 ± 0.048 kcal/mol | H^E ([1]; 1-octanol, 298.15 K): 0.865 ± 0.024 kcal/mol | S^E ([1]; 1-octanol, 298.15 K): −7.5 ± 0.3 J·mol^−1·K^−1 | TS^E ([1]; 1-octanol, 298.15 K): -0.533 kcal/mol | lnγ^∞ ([1]; 1-octanol, 298.15 K): 2.36 | ςH^E ([1]; 1-octanol, 298.15 K): 61.9% | ςTS^E ([1]; 1-octanol, 298.15 K): 38.1% | lnγ^∞ ([1]; 1-octanol, 303.15 K): 2.34 | lnγ^∞ ([1]; 1-octanol, 308.15 K): 2.32 | lnγ^∞ ([1]; 1-octanol, 313.15 K): 2.30 | lnγ^∞ ([1]; 1-propanol, 293.15 K): 2.16 | G^E ([1]; 1-propanol, 298.15 K): 1.25 ± 0.048 kcal/mol | H^E ([1]; 1-propanol, 298.15 K): 1.19 ± 0.024 kcal/mol | S^E ([1]; 1-propanol, 298.15 K): −0.9 ± 0.04 J·mol^−1·K^−1 | TS^E ([1]; 1-propanol, 298.15 K): -0.0669 kcal/mol | lnγ^∞ ([1]; 1-propanol, 298.15 K): 2.12 | ςH^E ([1]; 1-propanol, 298.15 K): 94.7% | ςTS^E ([1]; 1-propanol, 298.15 K): 5.3% | lnγ^∞ ([1]; 1-propanol, 303.15 K): 2.09 | lnγ^∞ ([1]; 1-propanol, 308.15 K): 2.06 | lnγ^∞ ([1]; 1-propanol, 313.15 K): 2.03 | lnγ^∞ ([1]; buffer pH 1.2, 293.15 K): 11.51 | G^E ([1]; buffer pH 1.2, 298.15 K): 6.84 ± 0.12 kcal/mol | H^E ([1]; buffer pH 1.2, 298.15 K): -1.54 ± 0.024 kcal/mol | S^E ([1]; buffer pH 1.2, 298.15 K): −117.5 ± 4.1 J·mol^−1·K^−1 | TS^E ([1]; buffer pH 1.2, 298.15 K): -8.372 kcal/mol | lnγ^∞ ([1]; buffer pH 1.2, 298.15 K): 11.55 | ςH^E ([1]; buffer pH 1.2, 298.15 K): 15.3% | ςTS^E ([1]; buffer pH 1.2, 298.15 K): 84.7% | lnγ^∞ ([1]; buffer pH 1.2, 303.15 K): 11.59 | lnγ^∞ ([1]; buffer pH 1.2, 308.15 K): 11.64 | lnγ^∞ ([1]; buffer pH 1.2, 313.15 K): 11.67 | lnγ^∞ ([1]; buffer pH 2.0, 293.15 K): 12.82 | G^E ([1]; buffer pH 2.0, 298.15 K): 7.58 ± 0.14 kcal/mol | H^E ([1]; buffer pH 2.0, 298.15 K): 1.24 ± 0.072 kcal/mol | S^E ([1]; buffer pH 2.0, 298.15 K): −88.9 ± 5.1 J·mol^−1·K^−1 | TS^E ([1]; buffer pH 2.0, 298.15 K): -6.334 kcal/mol | lnγ^∞ ([1]; buffer pH 2.0, 298.15 K): 12.80 | ςH^E ([1]; buffer pH 2.0, 298.15 K): 16.4% | ςTS^E ([1]; buffer pH 2.0, 298.15 K): 83.6% | lnγ^∞ ([1]; buffer pH 2.0, 303.15 K): 12.76 | lnγ^∞ ([1]; buffer pH 2.0, 308.15 K): 12.72 | lnγ^∞ ([1]; buffer pH 2.0, 313.15 K): 12.69 | lnγ^∞ ([1]; buffer pH 7.4, 293.15 K): 13.26 | G^E ([1]; buffer pH 7.4, 298.15 K): 7.82 ± 0.14 kcal/mol | H^E ([1]; buffer pH 7.4, 298.15 K): 1.7 ± 0.024 kcal/mol | S^E ([1]; buffer pH 7.4, 298.15 K): −85.9 ±2.9 J·mol^−1·K^−1 | TS^E ([1]; buffer pH 7.4, 298.15 K): -6.12 kcal/mol | lnγ^∞ ([1]; buffer pH 7.4, 298.15 K): 13.21 | ςH^E ([1]; buffer pH 7.4, 298.15 K): 21.7% | ςTS^E ([1]; buffer pH 7.4, 298.15 K): 78.3% | lnγ^∞ ([1]; buffer pH 7.4, 303.15 K): 13.15 | lnγ^∞ ([1]; buffer pH 7.4, 308.15 K): 13.11 | lnγ^∞ ([1]; buffer pH 7.4, 313.15 K): 13.08 | entropy term ζTS^E ([1]; buffer solutions): > 78% | lnγ^∞ ([1]; ethanol, 293.15 K): 2.00 | G^E ([1]; ethanol, 298.15 K): 1.15 ± 0.024 kcal/mol | H^E ([1]; ethanol, 298.15 K): 1.72 ± 0.024 kcal/mol | S^E ([1]; ethanol, 298.15 K): 8.0 ± 0.3 J·mol^−1·K^−1 | TS^E ([1]; ethanol, 298.15 K): 0.569 kcal/mol | lnγ^∞ ([1]; ethanol, 298.15 K): 1.95 | ςH^E ([1]; ethanol, 298.15 K): 75.2% | ςTS^E ([1]; ethanol, 298.15 K): 24.8% | lnγ^∞ ([1]; ethanol, 303.15 K): 1.91 | lnγ^∞ ([1]; ethanol, 308.15 K): 1.86 | lnγ^∞ ([1]; ethanol, 313.15 K): 1.81 | lnγ^∞ ([1]; hexane, 293.15 K): 7.12 | G^E ([1]; hexane, 298.15 K): 4.16 ± 0.072 kcal/mol | H^E ([1]; hexane, 298.15 K): 3.033 ± 0.024 kcal/mol | S^E ([1]; hexane, 298.15 K): −15.8 ± 0.4 J·mol^−1·K^−1 | TS^E ([1]; hexane, 298.15 K): -1.13 kcal/mol | lnγ^∞ ([1]; hexane, 298.15 K): 7.03 | ςH^E ([1]; hexane, 298.15 K): 72.9% | ςTS^E ([1]; hexane, 298.15 K): 27.1% | lnγ^∞ ([1]; hexane, 303.15 K): 6.95 | lnγ^∞ ([1]; hexane, 308.15 K): 6.86 | lnγ^∞ ([1]; hexane, 313.15 K): 6.79 | logP at 24 h ([2]; 293.15 K): 3.44 | logP at 24 h ([2]; 298.15 K): 3.5 | logP at 24 h ([2]; 303.15 K): 3.56 | logP at 24 h ([2]; 308.15 K): 3.62 | logP at 24 h ([2]; 313.15 K): 3.68 | PO/B ([2]; 293.15 K): 313.71 | logPO/B ([2]; 293.15 K): 2.50 | sB · 10^6 (equilibrium molar concentration, buffer phase) ([2]; 293.15 K): 6.85 | sO · 10^3 (equilibrium molar concentration, organic phase) ([2]; 293.15 K): 2.15 | xB · 10^7 (mole fraction, buffer phase) ([2]; 293.15 K): 1.22 | xo · 10^4 (mole fraction, 1-octanol phase) ([2]; 293.15 K): 3.39 | PO/B ([2]; 298.15 K): 359.18 | logPO/B ([2]; 298.15 K): 2.56 | sB · 10^6 (equilibrium molar concentration, buffer phase) ([2]; 298.15 K): 5.98 | sO · 10^3 (equilibrium molar concentration, organic phase) ([2]; 298.15 K): 2.15 | xB · 10^7 (mole fraction, buffer phase) ([2]; 298.15 K): 1.07 | xo · 10^4 (mole fraction, 1-octanol phase) ([2]; 298.15 K): 3.40 | PO/B ([2]; 303.15 K): 413.63 | logPO/B ([2]; 303.15 K): 2.62 | sB · 10^6 (equilibrium molar concentration, buffer phase) ([2]; 303.15 K): 5.20 | sO · 10^3 (equilibrium molar concentration, organic phase) ([2]; 303.15 K): 2.15 | xB · 10^7 (mole fraction, buffer phase) ([2]; 303.15 K): 0.93 | xo · 10^4 (mole fraction, 1-octanol phase) ([2]; 303.15 K): 3.42 | PO/B ([2]; 308.15 K): 474.77 | logPO/B ([2]; 308.15 K): 2.68 | sB · 10^6 (equilibrium molar concentration, buffer phase) ([2]; 308.15 K): 4.53 | sO · 10^3 (equilibrium molar concentration, organic phase) ([2]; 308.15 K): 2.15 | xB · 10^7 (mole fraction, buffer phase) ([2]; 308.15 K): 0.81 | xo · 10^4 (mole fraction, 1-octanol phase) ([2]; 308.15 K): 3.43 | PO/B ([2]; 313.15 K): 535.22 | logPO/B ([2]; 313.15 K): 2.73 | sB · 10^6 (equilibrium molar concentration, buffer phase) ([2]; 313.15 K): 4.02 | sO · 10^3 (equilibrium molar concentration, organic phase) ([2]; 313.15 K): 2.15 | xB · 10^7 (mole fraction, buffer phase) ([2]; 313.15 K): 0.72 | xo · 10^4 (mole fraction, 1-octanol phase) ([2]; 313.15 K): 3.45 | TΔtrS° [2, 3]: TΔtrS° = 40.9 ± 1.5/kJ·mol^−1 | ΔtrG° [2, 3]: ΔtrG° = −19.99 ± 0.4/kJ·mol^−1 | ΔtrH° [2, 3]: ΔtrH° = 20.95 ± 0.2/kJ·mol^−1 | ΔtrS° [2, 3]: ΔtrS° = 137.3 ± 5.2/J·mol^−1K^−1
